Assay results published in BindingDB's records for doi:10.7270/Q2TH8K43 (Burnham Center For Chemical Genomics, 2010).

Molecular target: Nucleotide-binding oligomerization domain-containing protein 2 (Homo sapiens, UniProt Q9HC29)
Test: PubChem AID 2334

Chain of Nucleotide-binding oligomerization domain-containing protein 2 (Q9HC29 whole entry, the tested form may be a part): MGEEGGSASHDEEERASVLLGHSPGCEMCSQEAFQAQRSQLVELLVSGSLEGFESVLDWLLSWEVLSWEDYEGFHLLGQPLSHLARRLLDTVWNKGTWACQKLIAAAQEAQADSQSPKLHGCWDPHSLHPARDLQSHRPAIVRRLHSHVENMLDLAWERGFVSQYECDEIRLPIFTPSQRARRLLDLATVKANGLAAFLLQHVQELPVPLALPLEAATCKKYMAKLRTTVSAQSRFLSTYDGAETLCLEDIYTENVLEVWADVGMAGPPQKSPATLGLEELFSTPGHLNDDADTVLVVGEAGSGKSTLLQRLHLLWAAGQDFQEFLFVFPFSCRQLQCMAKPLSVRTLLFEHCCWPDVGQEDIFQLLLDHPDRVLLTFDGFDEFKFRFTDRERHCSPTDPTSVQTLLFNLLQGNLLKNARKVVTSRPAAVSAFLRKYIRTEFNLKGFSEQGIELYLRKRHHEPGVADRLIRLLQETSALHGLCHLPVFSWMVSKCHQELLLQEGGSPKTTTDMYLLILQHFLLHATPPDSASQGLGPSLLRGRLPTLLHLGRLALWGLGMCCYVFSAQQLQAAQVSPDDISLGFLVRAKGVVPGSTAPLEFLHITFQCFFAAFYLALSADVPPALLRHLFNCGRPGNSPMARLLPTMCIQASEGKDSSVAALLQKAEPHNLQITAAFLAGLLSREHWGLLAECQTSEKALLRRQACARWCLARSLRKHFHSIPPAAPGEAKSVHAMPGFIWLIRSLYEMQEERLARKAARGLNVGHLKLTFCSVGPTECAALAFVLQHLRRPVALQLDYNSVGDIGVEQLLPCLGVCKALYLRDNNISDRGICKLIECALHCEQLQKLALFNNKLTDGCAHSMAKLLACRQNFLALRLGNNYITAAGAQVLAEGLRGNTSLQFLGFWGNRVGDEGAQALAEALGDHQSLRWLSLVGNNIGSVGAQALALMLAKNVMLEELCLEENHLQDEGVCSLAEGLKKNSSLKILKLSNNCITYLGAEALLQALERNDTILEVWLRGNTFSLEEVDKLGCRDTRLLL

**Q.** `Cc1cc(SCC(=O)OCC(=O)C(C#N)c2nc3ccccc3[nH]2)c(C)cc1Br` (stereo unspecified) was tested. Which IC50 did it give?
**A.** > 20 µM

**Q.** How did the IC50 turn out when `Cc1cc(Br)ccc1SCC(=O)OCC(=O)C(C#N)c1nc2ccccc2[nH]1` (stereo unspecified) [2-[(4-bromo-2-methylphenyl)thio]acetic acid [3-cyano-3-(1,3-dihydrobenzimidazol-2-ylidene)-2-oxopropyl] ester] was run?
**A.** > 20 µM

**Q.** `Cc1ccc(O)c(/N=C/C2=CC(Cc3ccccc3)C=C([N+](=O)[O-])C2=O)c1` (stereo unspecified) [(6E)-6-[[(5-methyl-2-oxidanyl-phenyl)amino]methylidene]-2-nitro-4-(phenylmethyl)cyclohexa-2,4-dien-1-one] was tested. Which IC50 did it give?
**A.** > 20 µM

**Q.** For `Cc1ccc(C)c(SCC(=O)OCC(=O)C(C#N)c2nc3ccccc3[nH]2)c1` (stereo unspecified) [MLS000392255], which IC50 is on record?
**A.** > 20 µM

**Q.** `N#CC(C(=O)COC(=O)CSc1ccc(Cl)cc1)c1nc2ccccc2[nH]1` (stereo unspecified) [MLS-0208254.0001] was tested. Which IC50 did it give?
**A.** > 20 µM

**Q.** Which IC50 does the source give for `N#CC(C(=O)COC(=O)CSc1ccc2ccccc2c1)c1nc2ccccc2[nH]1` (stereo unspecified) [[3-cyano-3-(1,3-dihydrobenzimidazol-2-ylidene)-2-oxopropyl] 2-naphthalen-2-ylsulfanylacetate] here?
**A.** > 20 µM
